Measured values taken from patent US9085598B2, “Compounds targeting the cell invasion protein complex, their pharmaceutical compositions and methods of use thereof” (THE ROYAL INSTITUTE FOR THE ADVANCEMENT OF LEARNING/MCGILL …, priority 2011, dated 2015).

Legend:
Assay in all cases: In vitro kinase activity (Kinase-Glo luminescence)
Type in all cases: biochemical
ABL1 = target: T1, ABL1 (Homo sapiens, UniProt P00519)
T1 construct: Human recombinant full-length kinases were incubated in kinase buffer
Experimental: (§1) Human recombinant full-length kinases were incubated in kinase buffer containing ATP and substrate (Poly Glu:Tyr) for 4 hours at room temperature with or without the presence of the compounds listed in Table 1 at various concentrations. Remaining ATP in solution was then quantified using the Kinase-Glo-Iuminescence™ kit (Promega).

INSR = target: T2, INSR (Homo sapiens, UniProt P06213)
T2 construct: Human recombinant full-length kinases were incubated in kinase buffer
Experimental: as §1

FLT3 = target: T3, FLT3 (Homo sapiens, UniProt P36888)
T3 construct: Human recombinant full-length kinases were incubated in kinase buffer
Experimental: as §1

MET = target: T4, MET (Homo sapiens, UniProt P08581)
T4 construct: Human recombinant full-length kinases were incubated in kinase buffer
Experimental: as §1

Aurora B = target: T5, Aurora B (Homo sapiens, UniProt Q96GD4)
T5 construct: Human recombinant full-length kinases were incubated in kinase buffer
Experimental: as §1

PLK4 = target: T6, PLK4 (Homo sapiens, UniProt O00444)
T6 construct: Human recombinant full-length kinases were incubated in kinase buffer
Experimental: as §1

SRC = target: T7, SRC (Homo sapiens, UniProt P12931)
T7 construct: Human recombinant full-length kinases were incubated in kinase buffer
Experimental: as §1

PIM1 = target: T8, PIM1 (Homo sapiens, UniProt P11309)
T8 construct: Human recombinant full-length kinases were incubated in kinase buffer
Experimental: as §1

SGK3 = target: T9, SGK3 (Homo sapiens, UniProt Q96BR1)
T9 construct: Human recombinant full-length kinases were incubated in kinase buffer
Experimental: as §1

SYK = target: T10, SYK (Homo sapiens, UniProt P43405)
T10 construct: Human recombinant full-length kinases were incubated in kinase buffer
Experimental: as §1

P38-γ = target: T11, P38-γ (Homo sapiens, UniProt P53778)
T11 construct: Human recombinant full-length kinases were incubated in kinase buffer
Experimental: as §1

FAK = target: T12, FAK (Homo sapiens, UniProt Q05397); conditions: 1 μM; Table 2; read-out: % Inhibition FAK
T12 construct: Human recombinant full-length kinases were incubated in kinase buffer
Experimental: as §1

AKT-1 = target: T13, AKT-1 (Homo sapiens, UniProt P31749); conditions: Table 2
T13 construct: Human recombinant full-length kinases were incubated in kinase buffer
Experimental: as §1

FYN = target: T14, FYN (Homo sapiens, UniProt P06241)
T14 construct: Human recombinant full-length kinases were incubated in kinase buffer
Experimental: as §1

LYN = target: T15, LYN (Homo sapiens, UniProt P07948)
T15 construct: Human recombinant full-length kinases were incubated in kinase buffer
Experimental: as §1

TRKB = target: T16, TRKB (Homo sapiens, UniProt Q16620)
T16 construct: Human recombinant full-length kinases were incubated in kinase buffer
Experimental: as §1

PAK1 = target: T17, PAK1 (Homo sapiens, UniProt Q13153)
T17 construct: Human recombinant full-length kinases were incubated in kinase buffer
Experimental: as §1

IKK-ε = target: T18, IKK-ε (Homo sapiens, UniProt Q14164)
T18 construct: Human recombinant full-length kinases were incubated in kinase buffer
Experimental: as §1

RPS6KA4 = target: T19, RPS6KA4 (Homo sapiens, UniProt O75676)
T19 construct: Human recombinant full-length kinases were incubated in kinase buffer
Experimental: as §1

VEGFR2 = target: T20, VEGFR2 (Homo sapiens, UniProt P35968)
T20 construct: Human recombinant full-length kinases were incubated in kinase buffer
Experimental: as §1

FGFR1 = target: T21, FGFR1 (Homo sapiens, UniProt P11362)
T21 construct: Human recombinant full-length kinases were incubated in kinase buffer
Experimental: as §1

YES1 = target: T22, YES1 (Homo sapiens, UniProt P07947)
T22 construct: Human recombinant full-length kinases were incubated in kinase buffer
Experimental: as §1

PKC-α = target: T23, PKC-α (Homo sapiens, UniProt P17252); conditions: Table 2
T23 construct: Human recombinant full-length kinases were incubated in kinase buffer
Experimental: as §1

HER2 = target: T24, HER2 (Homo sapiens, UniProt P04626)
T24 construct: Human recombinant full-length kinases were incubated in kinase buffer
Experimental: as §1

IGF1R = target: T25, IGF1R (Homo sapiens, UniProt P08069)
T25 construct: Human recombinant full-length kinases were incubated in kinase buffer
Experimental: as §1

CDK1/Cyclin B = target: T26, CDK1/Cyclin B (Homo sapiens, UniProt P06493)
T26 construct: Human recombinant full-length kinases were incubated in kinase buffer
Experimental: as §1

TIE1 = target: T27, TIE1 (Homo sapiens, UniProt P35590)
T27 construct: Human recombinant full-length kinases were incubated in kinase buffer
Experimental: as §1

EPHA1 = target: T28, EPHA1 (Homo sapiens, UniProt P21709)
T28 construct: Human recombinant full-length kinases were incubated in kinase buffer
Experimental: as §1

EGFR = target: T29, EGFR (Homo sapiens, UniProt P00533)
T29 construct: Human recombinant full-length kinases were incubated in kinase buffer
Experimental: as §1

Aurora A = target: T30, Aurora A (Homo sapiens, UniProt O14965)
T30 construct: Human recombinant full-length kinases were incubated in kinase buffer
Experimental: as §1

DDR1 = target: T31, DDR1 (Homo sapiens, UniProt Q08345)
T31 construct: Human recombinant full-length kinases were incubated in kinase buffer
Experimental: as §1

PDGFR-β = target: T32, PDGFR-β (Homo sapiens, UniProt P09619)
T32 construct: Human recombinant full-length kinases were incubated in kinase buffer
Experimental: as §1

T20 sequence (P35968 20-1356): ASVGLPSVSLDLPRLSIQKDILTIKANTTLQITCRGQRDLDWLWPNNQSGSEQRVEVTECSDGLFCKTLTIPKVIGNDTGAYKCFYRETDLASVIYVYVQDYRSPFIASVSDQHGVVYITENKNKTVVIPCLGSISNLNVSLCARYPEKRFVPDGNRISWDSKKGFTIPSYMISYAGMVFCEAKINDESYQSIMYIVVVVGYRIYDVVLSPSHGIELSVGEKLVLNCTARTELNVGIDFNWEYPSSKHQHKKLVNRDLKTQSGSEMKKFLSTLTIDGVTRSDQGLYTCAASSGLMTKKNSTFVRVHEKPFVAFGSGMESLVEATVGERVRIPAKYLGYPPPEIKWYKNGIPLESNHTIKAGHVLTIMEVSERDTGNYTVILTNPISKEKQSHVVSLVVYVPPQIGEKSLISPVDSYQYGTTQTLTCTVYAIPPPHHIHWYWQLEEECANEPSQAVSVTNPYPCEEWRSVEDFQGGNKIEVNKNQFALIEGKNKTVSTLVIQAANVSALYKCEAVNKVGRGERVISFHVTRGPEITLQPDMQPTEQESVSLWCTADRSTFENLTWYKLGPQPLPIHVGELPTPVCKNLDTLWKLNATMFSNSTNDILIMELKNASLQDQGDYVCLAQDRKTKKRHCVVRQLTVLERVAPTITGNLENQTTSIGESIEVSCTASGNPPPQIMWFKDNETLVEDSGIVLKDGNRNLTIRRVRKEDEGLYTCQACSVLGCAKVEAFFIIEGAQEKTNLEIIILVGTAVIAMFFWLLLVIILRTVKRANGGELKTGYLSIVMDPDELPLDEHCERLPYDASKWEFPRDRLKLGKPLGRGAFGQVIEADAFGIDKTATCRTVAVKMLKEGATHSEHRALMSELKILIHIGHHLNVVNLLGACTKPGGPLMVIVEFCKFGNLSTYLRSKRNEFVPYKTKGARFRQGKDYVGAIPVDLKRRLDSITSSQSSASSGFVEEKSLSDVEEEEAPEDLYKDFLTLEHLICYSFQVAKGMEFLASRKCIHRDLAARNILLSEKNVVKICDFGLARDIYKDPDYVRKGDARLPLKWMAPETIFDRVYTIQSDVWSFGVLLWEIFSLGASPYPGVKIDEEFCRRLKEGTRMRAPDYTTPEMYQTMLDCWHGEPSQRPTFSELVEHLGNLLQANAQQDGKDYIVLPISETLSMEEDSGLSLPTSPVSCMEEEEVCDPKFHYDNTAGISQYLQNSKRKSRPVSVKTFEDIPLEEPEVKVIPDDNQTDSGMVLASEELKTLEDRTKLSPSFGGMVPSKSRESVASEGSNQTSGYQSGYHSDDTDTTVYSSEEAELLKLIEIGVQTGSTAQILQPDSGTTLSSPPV
T16 sequence (Q16620 32-822): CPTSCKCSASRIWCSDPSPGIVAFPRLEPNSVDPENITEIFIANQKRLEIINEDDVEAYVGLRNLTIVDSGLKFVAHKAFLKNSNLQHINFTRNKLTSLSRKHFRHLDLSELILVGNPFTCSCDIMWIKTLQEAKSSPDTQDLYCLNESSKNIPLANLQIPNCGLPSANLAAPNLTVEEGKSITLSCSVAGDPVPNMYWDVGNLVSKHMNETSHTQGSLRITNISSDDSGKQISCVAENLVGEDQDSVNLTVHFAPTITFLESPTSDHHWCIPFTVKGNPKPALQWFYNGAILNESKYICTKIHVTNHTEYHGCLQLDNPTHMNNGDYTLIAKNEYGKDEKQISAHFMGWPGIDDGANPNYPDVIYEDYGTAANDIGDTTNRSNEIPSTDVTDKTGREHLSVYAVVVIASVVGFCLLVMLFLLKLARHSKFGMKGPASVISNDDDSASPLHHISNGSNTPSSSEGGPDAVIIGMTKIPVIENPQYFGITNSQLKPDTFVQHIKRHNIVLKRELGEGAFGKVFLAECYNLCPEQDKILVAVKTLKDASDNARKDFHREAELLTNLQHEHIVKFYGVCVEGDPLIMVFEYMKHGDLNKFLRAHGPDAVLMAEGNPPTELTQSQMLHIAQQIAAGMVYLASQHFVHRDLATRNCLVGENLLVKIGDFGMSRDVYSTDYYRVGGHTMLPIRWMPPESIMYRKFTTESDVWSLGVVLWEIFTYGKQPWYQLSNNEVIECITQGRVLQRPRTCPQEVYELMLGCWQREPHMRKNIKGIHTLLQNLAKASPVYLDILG
T15 sequence (P07948 whole entry): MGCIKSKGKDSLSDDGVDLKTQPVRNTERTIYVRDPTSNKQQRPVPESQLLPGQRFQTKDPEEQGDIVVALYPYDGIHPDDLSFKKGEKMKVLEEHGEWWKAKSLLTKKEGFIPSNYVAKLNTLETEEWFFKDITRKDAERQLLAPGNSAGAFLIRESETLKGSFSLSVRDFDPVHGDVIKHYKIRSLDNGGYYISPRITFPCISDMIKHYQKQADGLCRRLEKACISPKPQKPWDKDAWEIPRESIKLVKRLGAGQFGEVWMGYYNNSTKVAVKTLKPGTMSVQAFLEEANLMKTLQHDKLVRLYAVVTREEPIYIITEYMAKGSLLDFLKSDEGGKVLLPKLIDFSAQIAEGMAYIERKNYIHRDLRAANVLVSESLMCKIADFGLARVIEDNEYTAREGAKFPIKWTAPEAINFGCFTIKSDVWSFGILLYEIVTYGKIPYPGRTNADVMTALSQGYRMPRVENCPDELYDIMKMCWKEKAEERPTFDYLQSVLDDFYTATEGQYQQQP
T3 sequence (P36888 27-993): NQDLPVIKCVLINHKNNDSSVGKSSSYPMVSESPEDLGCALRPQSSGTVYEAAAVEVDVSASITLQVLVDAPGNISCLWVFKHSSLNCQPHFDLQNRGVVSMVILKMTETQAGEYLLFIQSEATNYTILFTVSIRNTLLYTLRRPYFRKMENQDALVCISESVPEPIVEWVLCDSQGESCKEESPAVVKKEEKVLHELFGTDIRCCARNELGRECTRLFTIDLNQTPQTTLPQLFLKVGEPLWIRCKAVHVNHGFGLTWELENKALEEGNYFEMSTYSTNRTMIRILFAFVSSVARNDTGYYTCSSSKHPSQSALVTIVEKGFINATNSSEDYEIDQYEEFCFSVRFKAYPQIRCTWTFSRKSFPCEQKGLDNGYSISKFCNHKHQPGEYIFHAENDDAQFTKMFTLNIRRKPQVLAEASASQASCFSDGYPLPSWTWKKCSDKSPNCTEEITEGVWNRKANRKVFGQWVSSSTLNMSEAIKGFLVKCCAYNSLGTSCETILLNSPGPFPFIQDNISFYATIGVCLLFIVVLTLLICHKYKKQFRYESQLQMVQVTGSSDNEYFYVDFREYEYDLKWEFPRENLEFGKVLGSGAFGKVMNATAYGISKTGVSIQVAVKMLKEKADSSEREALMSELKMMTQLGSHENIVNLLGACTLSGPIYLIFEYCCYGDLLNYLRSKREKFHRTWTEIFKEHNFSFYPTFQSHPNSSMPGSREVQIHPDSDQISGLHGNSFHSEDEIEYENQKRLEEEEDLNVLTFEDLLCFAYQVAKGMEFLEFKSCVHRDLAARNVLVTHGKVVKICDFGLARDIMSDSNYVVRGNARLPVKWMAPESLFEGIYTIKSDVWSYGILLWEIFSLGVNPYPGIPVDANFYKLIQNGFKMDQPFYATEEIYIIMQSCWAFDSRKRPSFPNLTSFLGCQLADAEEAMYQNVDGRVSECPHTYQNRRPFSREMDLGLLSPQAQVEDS
T29 sequence (P00533 25-1210): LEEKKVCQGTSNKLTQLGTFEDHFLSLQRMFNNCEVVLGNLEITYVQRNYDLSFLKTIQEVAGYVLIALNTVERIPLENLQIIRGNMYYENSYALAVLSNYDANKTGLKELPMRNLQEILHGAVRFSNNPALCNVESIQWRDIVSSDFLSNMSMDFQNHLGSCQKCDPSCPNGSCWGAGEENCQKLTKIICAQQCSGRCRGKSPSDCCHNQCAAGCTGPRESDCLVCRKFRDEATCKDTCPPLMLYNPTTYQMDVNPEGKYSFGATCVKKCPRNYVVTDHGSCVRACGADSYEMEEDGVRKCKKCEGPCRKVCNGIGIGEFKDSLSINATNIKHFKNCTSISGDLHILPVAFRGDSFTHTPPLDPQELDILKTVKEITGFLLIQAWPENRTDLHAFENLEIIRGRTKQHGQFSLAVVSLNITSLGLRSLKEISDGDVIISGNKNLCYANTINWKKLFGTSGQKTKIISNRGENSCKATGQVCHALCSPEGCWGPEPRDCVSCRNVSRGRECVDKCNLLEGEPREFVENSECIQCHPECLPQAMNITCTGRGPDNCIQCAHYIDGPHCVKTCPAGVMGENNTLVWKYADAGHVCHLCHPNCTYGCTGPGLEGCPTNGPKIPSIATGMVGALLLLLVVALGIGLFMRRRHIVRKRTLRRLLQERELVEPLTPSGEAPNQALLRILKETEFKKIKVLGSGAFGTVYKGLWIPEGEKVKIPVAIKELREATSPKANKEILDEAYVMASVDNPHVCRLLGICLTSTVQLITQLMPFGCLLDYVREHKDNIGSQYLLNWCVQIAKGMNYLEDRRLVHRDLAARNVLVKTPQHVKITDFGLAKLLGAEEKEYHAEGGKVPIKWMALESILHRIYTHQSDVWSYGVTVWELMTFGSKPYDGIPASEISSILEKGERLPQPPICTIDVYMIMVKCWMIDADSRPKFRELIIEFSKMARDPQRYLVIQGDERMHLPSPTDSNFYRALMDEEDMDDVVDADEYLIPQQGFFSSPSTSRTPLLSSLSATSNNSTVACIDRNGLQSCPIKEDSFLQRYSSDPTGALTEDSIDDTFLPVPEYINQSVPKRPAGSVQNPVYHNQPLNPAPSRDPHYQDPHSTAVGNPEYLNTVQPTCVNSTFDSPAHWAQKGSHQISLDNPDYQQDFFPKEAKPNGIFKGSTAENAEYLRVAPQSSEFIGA

- inhibition at 1 µM (ABL1): 0%
- inhibition at 1 µM (INSR): 0%
- inhibition at 1 µM (FLT3): 0%
- inhibition at 1 µM (MET): 0%
- inhibition at 1 µM (Aurora B): 0%
- inhibition at 1 µM (PLK4): 0%
- inhibition at 1 µM (SRC): 0%
- inhibition at 1 µM (PIM1): 0%
- inhibition at 1 µM (SGK3): 0%
- inhibition at 1 µM (SYK): 0%
- inhibition at 1 µM (P38-γ): 0%
- inhibition at 1 µM (FAK): 1%
- inhibition at 1 µM (AKT-1): 22%
- inhibition at 1 µM (FYN): 0%
- inhibition at 1 µM (LYN): 0%
- inhibition at 1 µM (TRKB): 0%
- inhibition at 1 µM (PAK1): 0%
- inhibition at 1 µM (IKK-ε): 0%
- inhibition at 1 µM (RPS6KA4): 0%
- inhibition at 1 µM (VEGFR2): 0%
- inhibition at 1 µM (FGFR1): 0%
- inhibition at 1 µM (YES1): 0%
- inhibition at 1 µM (PKC-α): 25%
- inhibition at 1 µM (HER2): 0%
- inhibition at 1 µM (IGF1R): 0%
- inhibition at 1 µM (CDK1/Cyclin B): 0%
- inhibition at 1 µM (TIE1): 0%
- inhibition at 1 µM (EPHA1): 0%
- inhibition at 1 µM (EGFR): 0%
- inhibition at 1 µM (Aurora A): 0%
- inhibition at 1 µM (DDR1): 0%
- inhibition at 1 µM (PDGFR-β): 0%
SMILES: O=c1c2ccccc2[se]n1-c1ccccc1 [Ebselen, reference compound]
